Assay results from patent US20070161592A1, “Method of treating fear” (priority 2005, published 2007).
Entries after “also recorded” stand apart in the source; their conditions may differ.

Legend:
C57BL/6 male mice = assay: Mouse fear conditioning (contextual and auditory fear memory, freezing); assay type: in vivo
Experimental: siRNA corresponding to NR2B (sense 5′-GGAUGAGUCCUCCAUGUUCtt-3′ and antisense 5′-GAACAUGGAGGACUCAUCCtt-3′, Silencer Pre-designed siRNA, ID #61879, Ambion, Tex.) was delivered into the ACC by microelectroporation, which was performed as described previously (Wei et al., 2003). Briefly, 0.5 μl of 1:4 mixture of siRNA (2.5 μg/μl) and pEGFP-N1 (1 μg/μl) was injected into the ACC (0.7 mm anterior to Bregma, ±0.4 mm lateral from the midline, 1.8 mm beneath the surface of the skull) (Franklin and Paxinos, 1997) through a 30-gauge injection cannula. Then, square-wave electric pulses (five pulses at 1 Hz, 50 ms duration at 40 V) were delivered through a pair of silver electrodes placed 2 mm anterior and 1 mm posterior to the injection site using a S48 Stimulator (Grass Instruments). Control groups consisted of a group receiving only the electroporation shock, pEGFP-N1, or Silencer Negative control siRNA (#4611, Ambion) and pEGFP-N1. Western blot analysis was performed 4 days after electroporation and electrophysiological recordings were taken 2-4 days after.
Under ketamine and xylazine anesthesia, 24-guage guide cannulas were implanted bilaterally into the ACC (0.7 mm anterior to Bregma, ±0.4 mm lateral from the midline, 1.7 mm beneath the surface of the skull) or dorsal hippocampus (2.0 mm posterior to Bregma, ±1.5 mm lateral from the midline, 1.9 mm beneath the surface of the skull). Mice were given at least 2 weeks to recover after cannula implantation. All procedures were performed in accordance with the requirements of the Animal Studies Committee at the University of Toronto. The 30-gauge injection cannula was 0.1 mm lower than the guide. For intra-ACC infusion, 0.5 μl Ro25-6981 (4 μg/μl) or saline was delivered bilaterally within 90 s using a pump. 15 min later mice were conditioned by one pairing of a tone (2.8 kHz, 85 dB, 30 s) and a foot shock (0.75 mA, 2 s) that terminated at the same time as the tone. For intra-hippocampal infusion, 0.5 μl Ro25-6981 (10 μg/μl) or saline was delivered bilaterally within 90 s. 15 min later mice received one pairing of a tone and a foot shock, as above. One day later, animals were exposed to the conditioning context without a tone for 3 min and freezing responses were scored automatically (Freeze view software, Actrimetrics, Wilmette, Ill.).
NR2B subunit inhibition in adult mice was examined to determine whether this impairs the formation of contextual fear memory. Three days after bilateral siRNA electroporation, mice were trained (or conditioned) and then tested for contextual fear memory by assessing freezing behavior in the same environmental context after 24 hours. There was no difference in baseline freezing or in freezing immediately following the shock/tone pairing between groups; however, there was a significant difference between groups when tested in the contextual environment one day later (n=8 for EGFP only; n=10 for control siRNA; n=8 for shock only; n=11 for NR2B siRNA; one-way ANOVA, p=0.005; FIG. 8C). […] Since the activation of NR2B was suppressed throughout the training and memory test, the roles of NR2B during the acquisition and retrieval of fear memory cannot be distinguished. Recently, electric stimulation of the ACC was reported to induce fear memory one and three days after stimulation (Tang et al., 2005), which implies that the ACC may be involved in the acquisition of fear memory. To directly address this issue, the effect of NR2B blockade using Ro25-6981 was examined. […] In order to rule out any locomotor side-effects, locomotor activity in the open field was tested after bilateral ACC microinjection of Ro25-6981 (n=4) or vehicle (n=4).

[1] = system: NR2A, NR1, GluR1, and actin; assay: Western blot of other membrane proteins in ACC after siRNA electroporation; assay type: in vivo, mouse; conditions: four days after electroporation, vs control siRNA
Experimental: Equal amounts of protein from the ACC and hippocampus were separated and electrotransferred onto PDVF membranes (Invitrogen), which were probed with anti-NR2A, anti-NR2B (Chemicon), and anti-PSD-95 (ABR) and with β-actin (Sigma) as a loading control. The membranes were incubated with horseradish peroxidase-conjugated secondary antibodies (anti-mouse IgG for PSD-95 and anti-rabbit IgG for the other primary antibodies), and bands were visualized using an ECL system (Perkin Elmer). Synaptosomal membrane fractions (LP1) were prepared as previously described (Dunah and Standaert, 2001) and solubilized using 1% SDS in TEVP buffer: 10 mM Tris-HCl, pH 7.4, 1 mM EDTA, 1 mM EGTA, 1× protease inhibitor cocktail (Sigma), and 1× phosphatase inhibitor cocktail 1 and 2 (Sigma). […] Results are expressed as means±SEM. […]
To inhibit NR2B expression specifically in the prefrontal cortex, including the ACC, siRNA was bilaterally delivered against NR2B with a reporter plasmid encoding EGFP by microelectroporation (Wei et al., 2003) (FIG. 8A). […] The expression levels of other NMDAR subunits (NR2A and NR1) and AMPA receptor subunit GluR1 were measured, and actin was used as a control in the ACCs of NR2B siRNA and control siRNA electroporated mice.

[2] = mice, 5 μg in 0.5 μl bilaterally into dorsal hippocampi, tested one day after training

Molecule	auditory fear memory (C57BL/6 male mice; mice, 2 μg in 0.5 μl per side into the bilateral ACC)	auditory fear memory (C57BL/6 male mice; [2])	contextual fear memory (C57BL/6 male mice; [2])	baseline or immediate freezing behavior (C57BL/6 male mice; mice, ACC microinjection)	baseline or immediate freezing behavior (C57BL/6 male mice; mice, hippocampal microinjection)	contextual fear memory (freezing in the contextual environment) (C57BL/6 male mice; mice, microinjection 2 μg in 0.5 μl per side into the bilateral ACC before conditioning)	expression levels of NR2A, NR1, GluR1, and actin [1]	baseline freezing or freezing immediately following the shock/tone pairing (C57BL/6 male mice; bilateral siRNA electroporation into ACC)	contextual fear memory (freezing in the contextual environment) (C57BL/6 male mice; bilateral siRNA electroporation into ACC, trained three days later, tested after 24 hours)
C[C@@H](CN1CCC(Cc2ccccc2)CC1)[C@@H](O)c1ccc(O)cc1 [Ro25-6981]	no difference in auditory fear memory	did not affect	did not impair contextual fear memory; also recorded: did not affect	did not significantly affect	did not significantly affect	decreased contextual fear memory; also recorded: significant reduction in freezing	–	–	–
NR2B siRNA: siRNA corresponding to NR2B, sense 5′-GGAUGAGUCCUCCAUGUUCtt-3′, antisense 5′-GAACAUGGAGGACUCAUCCtt-3′, Silencer Pre-designed siRNA ID #61879, Ambion (sense GGAUGAGUCCUCCAUGUUCTT; antisense GAACAUGGAGGACUCAUCCTT; chemistry not given here)	–	–	–	–	–	–	not significantly changed	no difference	impaired contextual fear memory; also recorded: significantly less freezing
